How the values were obtained:
Type in all cases: in vivo
Botrytis cinerea [1] = experiment: Use example 1: activity against gray mold on bell pepper leaves, 1 day protective application; conditions: efficacy in % of untreated control (Abbot), sprayed 1 day before inoculation, rated after 5 days, read-out: Observed activity (%)
Description: (§1) The active compounds were prepared jointly or separately as a stock solution with 25 mg of active compound which was made up to 10 ml using a mixture of acetone and/or DMSO and the emulsifier Uniperol® EL (wetting agent having emulsifying and dispersing action based on ethoxylated alkylphenols) in a volume ratio of solvent/emulsifier of 99 to 1. The mixture was then made up with water to 100 ml. This stock solution was diluted with the solvent/emulsifier/water mixture described to the concentration of active compounds stated below.
(§2) The active compounds epoxiconazole and pyraclostrobin were used as commercial formulations and diluted with water to the stated concentration.
(§3) The visually determined percentages of infected leaf areas were converted into efficacies in % of the untreated control:
(§4) The efficacy (E) is calculated as follows using Abbot's formula: E=(1−α/β)·100 • α corresponds to the fungicidal infection of the treated plants in % and • β corresponds to the fungicidal infection of the untreated (control) plants in % […]
(§5) The expected efficacies of mixtures of active compounds were determined using Colby's formula (Colby, S. R. “Calculating synergistic and antagonistic responses of herbicide combinations”, Weeds, 15, 1967, p. 20-22) and compared with the observed efficacies. […]

Botrytis cinerea [2] = experiment: Use example 2: activity against gray mold on bell pepper leaves, 5 day protective application; conditions: sprayed 5 days before inoculation, read-out: Observed activity (%)
Description: as §1, §2, §3
The efficacy (E) is calculated as follows using Abbot's formula: E=(1−α/β)·100 • α corresponds to the fungicidal infection of the treated plants in % and • β corresponds to the fungicidal infection of the untreated (control) plants in %
An efficacy of 0 means that the infection level of the treated plants corresponds to that of the untreated control plants; an efficacy of 100 means that the treated plants were not infected.
The expected efficacies of mixtures of active compounds were determined using Colby's formula (Colby, S. R. “Calculating synergistic and antagonistic responses of herbicide combinations”, Weeds, 15, 1967, p. 20-22) and compared with the observed efficacies.
Colby's formula: E=x+y−x·y/100 • E expected efficacy, expressed in % of the untreated control, when using the mixture of the active compounds A and B at the concentrations a and b • x efficacy, expressed in % of the untreated control, when using the active compound A at the concentration a • y efficacy, expressed in % of the untreated control, when using the active compound B at the concentration b
Use example 2-activity against gray mold on bell pepper leaves caused by Botrytis cinerea, 5 day protective application
Bell pepper seedlings of the cultivar “Neusiedler Ideal Elite” were, after 2-3 leaves were well developed, sprayed to runoff point with an aqueous suspension having the active compound concentration given below. After 5 days, the treated plants were inoculated with a spore suspension of Botrytis cinerea which comprised 1.7×10^6 spores/ml in a 2% strength aqueous biomalt solution. The test plants were then placed in a dark climatized chamber at 22 to 24° C. and high atmospheric humidity. After 5 days, the extent of the fungal infection on the leaves could be determined visually in %.

Alternaria solani = experiment: Use example 3: 5 day protective activity against early blight of tomato; conditions: sprayed 5 days before infection, rated after 5 days, read-out: Observed activity (%)
Description: as §1, §2, §3, §4, §5

Question: With `Fc1ccc([C@]2(Cn3cncn3)O[C@H]2c2ccccc2Cl)cc1` (racemic) [epoxiconazole (A7), (2RS,3SR)-1-[3-(2-chlorophenyl)-2,3-epoxy-2-(4-fluorophenyl)propyl]-1H-1,2,4-triazole] as the compound, how does the inhibition at 4 ppm (Botrytis cinerea [1]) read?
Answer: 0%

Question: `CN1OC(c2ccc(Cl)cc2)CC1(C)c1cccnc1` (centres unmarked) [SYP-Z048 (I)] was tested. Which inhibition at 16 ppm (Botrytis cinerea [2]; 16 ppm, rated after 5 days) did it give?
Answer: 0%

Question: What about the inhibition at 1 ppm (Alternaria solani; 1 ppm) of the same compound?
Answer: 0%

Question: What about the inhibition at 4 ppm (Botrytis cinerea [1]) of the same compound?
Answer: 70%

Question: What does the source list for `O=C(Nc1ccccc1-c1ccc(Cl)cc1)c1cccnc1Cl` [boscalid (C3), 2-chloro-N-(4′-chlorobiphenyl-2-yl)nicotinamide]?
Answer: inhibition at 4 ppm (Botrytis cinerea [2]; 4 ppm): 0%; inhibition at 4 ppm (Alternaria solani; 4 ppm): 56%

Question: For `COC(=O)N(OC)c1ccccc1COc1ccn(-c2ccc(Cl)cc2)n1` [pyraclostrobin (B9), methyl N-{2-[1-(4-chlorophenyl)-1H-pyrazol-3-yloxymethyl]phenyl}(N-methoxy)carbamate], which inhibition at 63 ppm (Botrytis cinerea [2]; 63 ppm, commercial formulation) is on record?
Answer: 20%

Question: How did the inhibition at 250 ppm (Botrytis cinerea [2]; 250 ppm) turn out when `Cc1ccc(N(SC(F)(Cl)Cl)S(=O)(=O)N(C)C)cc1` [tolylfluanid (F29), N-dichlorofluoromethylthio-N′,N′-dimethyl-N-p-tolylsulfamide] was run?
Answer: 20%
